Test results from patent US9518018B2, “3-alkoxy, thioalkyl and amino-4-amino-6-(substituted)picolinates and their use as herbicides” (Dow AgroSciences LLC, priority 2011, dated 2016).

Legend:
[1] = test system: ABUTH: velvetleaf (Abutilon theophrasti); test: Post-Emergent Test I herbicidal activity; assay type: in vivo; details: Abutilon theophrasti, post-emergence, 336 h, read-out: Visual Growth Reduction (%)-14 Days after Application ABUTH; for pest or weed control at 140 g/ha: Table 3, 140 g ai/ha; for pest or weed control at 280 g/ha: Table 3, 280 g ai/ha
Summary of the method: (§1)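 Plants grown in greenhouse to first/second true leaf. Compound formulated in acetone:DMSO 97:3 then diluted into crop-oil/surfactant aqueous mix; serial twofold rates. Sprayed at 187 L/ha, 43 cm above canopy; solvent-blank controls. Scored visually at 14 d; probit fit for GR values.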

[2] = test system: CYPES: yellow nutsedge (Cyperus esculentus); test: Post-Emergent Test I herbicidal activity; assay type: in vivo; details: post-emergence, 336 h, read-out: Visual Growth Reduction (%)-14 Days after Application CYPES; for pest or weed control at 140 g/ha: Table 3, 140 g ai/ha; for pest or weed control at 280 g/ha: Table 3, 280 g ai/ha
Summary of the method: as §1

[3] = test system: EPHHL: wild poinsettia (Euphorbia heterophylla); test: Post-Emergent Test I herbicidal activity; assay type: in vivo; details: post-emergence, 336 h, read-out: Visual Growth Reduction (%)-14 Days after Application EPHHL; for pest or weed control at 140 g/ha: Table 3, 140 g ai/ha; for pest or weed control at 280 g/ha: Table 3, 280 g ai/ha
Summary of the method: as §1

[4] = test system: CHEAL: lambsquarters (Chenopodium album); test: Post-Emergent Test I herbicidal activity; assay type: in vivo; details: Chenopodium album, post-emergence, 336 h, read-out: Visual Growth Reduction (%)-14 Days after Application CHEAL; for pest or weed control at 140 g/ha: Table 3, 140 g ai/ha; for pest or weed control at 280 g/ha: Table 3, 280 g ai/ha
Summary of the method: as §1

[5] = test system: ECHCG: barnyardgrass (Echinochloa crus-galli); test: Post-Emergent Test I herbicidal activity; assay type: in vivo; details: post-emergence, 336 h, read-out: Visual Growth Reduction (%)-14 Days after Application ECHCG; for pest or weed control at 140 g/ha: Table 3, 140 g ai/ha; for pest or weed control at 280 g/ha: Table 3, 280 g ai/ha
Summary of the method: (§2)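 Greenhouse plants at first-second true leaf stage sprayed post-emergence by track sprayer at 187 L/ha with compound in acetone/DMSO/water/isopropanol carrier with crop oil concentrate and Triton X-155, top rate plus ½× to 1/16× serial rates. Injury scored visually at 14 d, 0-100% versus untreated plants; GR20, GR50, GR80 from probit analysis.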

ZEAMX: corn (Zea mays) = test: Post-Emergent Test I herbicidal activity; assay type: in vivo; details: Zea mays, post-emergence, 336 h, read-out: Visual Growth Reduction (%)-14 Days after Application ZEAMX; for pest or weed control at 140 g/ha: Table 3, 140 g ai/ha; for pest or weed control at 280 g/ha: Table 3, 280 g ai/ha
Summary of the method: as §1

[6] = test system: ORYSA: rice (Oryza sativa); test: Post-Emergent Test I herbicidal activity; assay type: in vivo; details: post-emergence, 336 h, read-out: Visual Growth Reduction (%)-14 Days after Application ORYSA; for pest or weed control at 140 g/ha: Table 3, 140 g ai/ha; for pest or weed control at 280 g/ha: Table 3, 280 g ai/ha
Summary of the method: as §2

| melting point | SMILES | pest or weed control at 140 g/ha [1] | pest or weed control at 140 g/ha [2] | pest or weed control at 140 g/ha [3] | pest or weed control at 140 g/ha [4] | pest or weed control at 140 g/ha [5] | pest or weed control at 140 g/ha (ZEAMX: corn (Zea mays)) | pest or weed control at 140 g/ha [6] | other results |
| --- | --- | --- | --- | --- | --- | --- | --- | --- | --- |
| 109 to 110 °C | COC(=O)c1nc(-c2ccc(Cl)c(F)c2)c(F)c(N)c1OC [Compound 32] | 95% | 100% | 100% | 100% | 90% | 75% | 0% |  |
| 143 to 145 °C | COc1c(C(=O)O)nc(-c2ccc(I)cc2F)c(F)c1N [Compound 62] | 15% | 50% | 100% | 100% | 100% | 75% | 8% |  |
| 153 to 154 °C | COC(=O)c1nc(-c2ccc(Cl)cc2)cc(N(C)C)c1N [Compound 87, Methyl 3-amino-6-(4-chlorophenyl)-4-(dimethylamino)picolinate] | 90% | 90% | 100% | 90% | 40% | 0% | 0% |  |
| 153.5 to 155 °C | COc1c(C(=O)O)nc(-c2cc(F)c(Cl)cc2F)c(F)c1N [Compound 57] |  |  |  |  |  |  |  | pest or weed control at 70 g/ha ([1]; Table 3, 70 g ai/ha): 85%; pest or weed control at 70 g/ha ([2]; Table 3, 70 g ai/ha): 70%; pest or weed control at 70 g/ha ([3]; Table 3, 70 g ai/ha): 100%; pest or weed control at 70 g/ha ([4]; Table 3, 70 g ai/ha): 100%; pest or weed control at 70 g/ha ([5]; Table 3, 70 g ai/ha): 90%; pest or weed control at 70 g/ha (ZEAMX: corn (Zea mays); Table 3, 70 g ai/ha): 75%; pest or weed control at 70 g/ha ([6]; Table 3, 70 g ai/ha): 0% |
| 169 to 171 °C | COc1c(Cl)ccc(-c2cc(N)c(OC(F)F)c(C(=O)O)n2)c1F [Compound 64] |  |  |  |  |  |  |  | pest or weed control at 280 g/ha [1]: 50%; pest or weed control at 280 g/ha [2]: 0%; pest or weed control at 280 g/ha [3]: 95%; pest or weed control at 280 g/ha [4]: 85%; pest or weed control at 280 g/ha [5]: 0%; pest or weed control at 280 g/ha (ZEAMX: corn (Zea mays)): 10%; pest or weed control at 280 g/ha [6]: 0% |
| 160 to 162 °C | COc1c(C(=O)O)nc(-c2ccc(C(F)(F)F)nc2)c(F)c1N [Compound 63] | 90% | 100% | 100% | 100% | 95% | 80% | 50% |  |
| 123 to 125 °C | CCOC(=O)c1nc(-c2ccc(Cl)cc2F)cc(N)c1OCC(F)(F)F [Compound 67, ethyl 4-amino-6-(4-chloro-2-fluorophenyl)-3-(2,2,2-trifluoro-ethoxy)picolinate] |  |  |  |  |  |  |  | pest or weed control at 280 g/ha [1]: 25%; pest or weed control at 280 g/ha [2]: 0%; pest or weed control at 280 g/ha [3]: 35%; pest or weed control at 280 g/ha [4]: 50%; pest or weed control at 280 g/ha [5]: 0%; pest or weed control at 280 g/ha (ZEAMX: corn (Zea mays)): 0%; pest or weed control at 280 g/ha [6]: 0% |
| 141 to 143 °C | COC(=O)c1nc(-c2ccc(F)cc2)c(F)c(N)c1OC [Compound 36] | 100% | 100% | 100% | 100% | 0% | 60% | 0% |  |
